Results taken from patent US8338597B2, “Pyridones useful as inhibitors of kinases” (Vertex Pharmaceuticals Incorporated, priority 2004, dated 2012).

Experiments:
Format in all cases: biochemical
[1] = target: T1, Itk (Homo sapiens, UniProt Q08881); test: ITK inhibition assay, radioactive-phosphate incorporation; details: [γ-33P]ATP, SAM68 peptide, 25° C.
T1 sequence (Q08881 1-620): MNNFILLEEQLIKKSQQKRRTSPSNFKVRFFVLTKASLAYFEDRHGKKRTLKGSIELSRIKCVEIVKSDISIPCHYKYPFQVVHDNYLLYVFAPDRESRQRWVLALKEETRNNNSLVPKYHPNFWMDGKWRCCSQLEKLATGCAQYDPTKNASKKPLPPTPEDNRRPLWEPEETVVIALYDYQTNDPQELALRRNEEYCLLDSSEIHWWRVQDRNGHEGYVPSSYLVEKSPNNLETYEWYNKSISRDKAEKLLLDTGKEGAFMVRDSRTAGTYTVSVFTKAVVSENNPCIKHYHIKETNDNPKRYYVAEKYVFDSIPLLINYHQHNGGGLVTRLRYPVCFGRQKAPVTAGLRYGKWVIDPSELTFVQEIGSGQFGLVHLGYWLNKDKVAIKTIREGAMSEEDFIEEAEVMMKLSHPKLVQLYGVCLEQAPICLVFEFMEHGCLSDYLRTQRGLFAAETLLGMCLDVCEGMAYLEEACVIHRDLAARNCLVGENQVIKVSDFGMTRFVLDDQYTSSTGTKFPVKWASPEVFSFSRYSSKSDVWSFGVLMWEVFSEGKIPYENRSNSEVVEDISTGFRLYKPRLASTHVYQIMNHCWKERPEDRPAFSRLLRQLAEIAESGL
Experimental: Assays were carried out in a mixture of 20 mM MOPS (pH 7.0), 10 mM MgCl2, 0.1% BSA and 1 mM DTT. […] Assays were carried out at 25° C. in the presence of 50 nM Itk. An assay stock buffer solution was prepared containing all of the reagents listed above, with the exception of ATP and the test compound of interest.
The reaction was stopped after 10 minutes by the addition of […] 0.2M phosphoric acid+0.01% TWEEN 20. A multiscreen phosphocellulose filter 96-well plate (Millipore, Cat no. MAPHN0B50) was pretreated with 100 μL 0.2M phosphoric acid+0.01% TWEEN 20 prior to the addition of […] of the stopped assay mixture. The plate was washed with 4×200 μL 0.2M phosphoric acid+0.01% TWEEN 20.
Ki(app) data were calculated from non-linear regression analysis of the initial rate data using the Prism software package (GraphPad Prism version 3.0cx for Macintosh, GraphPad Software, San Diego Calif., USA).

[2] = target: T1, Itk; test: ITK inhibition assay (UV), standard coupled enzyme assay; details: 100 μM ATP, 100 nM Itk, 25° C.
Experimental: Assays were carried out in a mixture of 20 mM MOPS (pH 7.0), 10 mM MgCl2, 0.1% BSA, 1 mM DTT, 2.5 mM phosphoenolpyruvate, 300 μM NADH, 30 μg/ml pyruvate kinase and 10 μg/ml lactate dehydrogenase. […]
An assay stock buffer solution was prepared containing all of the reagents listed above, with the exception of ATP and the test compound of interest. […] The plate was preincubated for 10 minutes at 25° C. and the reaction initiated by addition of 5 μl of ATP. Initial reaction rates were determined with a Molecular Devices SpectraMax Plus plate reader over a 10 minute time course. IC50 and Ki data were calculated from non-linear regression analysis using the Prism software package (GraphPad Prism version 3.0cx for Macintosh, GraphPad Software, San Diego Calif., USA).

[3] = target: T2, Rlk (Homo sapiens, UniProt P42681); test: RLK inhibition assay, standard coupled enzyme assay; details: 100 μM ATP, 40 nM Rlk, 30° C.
T2 sequence (P42681 1-527): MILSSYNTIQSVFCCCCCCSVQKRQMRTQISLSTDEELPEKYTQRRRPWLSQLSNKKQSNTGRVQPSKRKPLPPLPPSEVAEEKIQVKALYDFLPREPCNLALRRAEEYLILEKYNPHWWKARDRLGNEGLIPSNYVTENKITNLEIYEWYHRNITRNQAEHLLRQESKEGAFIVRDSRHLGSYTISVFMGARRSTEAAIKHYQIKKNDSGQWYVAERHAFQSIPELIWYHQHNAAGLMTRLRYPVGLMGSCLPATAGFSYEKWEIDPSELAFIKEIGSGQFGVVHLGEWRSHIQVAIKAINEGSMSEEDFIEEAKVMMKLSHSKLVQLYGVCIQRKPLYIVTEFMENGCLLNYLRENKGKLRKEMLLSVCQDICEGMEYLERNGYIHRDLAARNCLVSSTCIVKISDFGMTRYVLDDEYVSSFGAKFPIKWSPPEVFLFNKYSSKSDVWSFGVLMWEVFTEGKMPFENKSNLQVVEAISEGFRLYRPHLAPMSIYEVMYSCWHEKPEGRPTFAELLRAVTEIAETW
Experimental: Compounds were screened for their ability to inhibit Rlk using a standard coupled enzyme assay (Fox et al., Protein Sci., (1998) 7, 2249). Assays were carried out in a mixture of 20 mM MOPS (pH 7.0), 10 mM MgCl2, 0.1% BSA and 1 mM DTT. Final substrate concentrations in the assay were 100 μM ATP (Sigma Chemicals) and 10 μM peptide (Poly Glu:Tyr 4:1). Assays were carried out at 30° C. and in the presence of 40 nM Rlk. Final concentrations of the components of the coupled enzyme system were 2.5 mM phosphoenolpyruvate, 300 μM NADH, 30 μg/ml pyruvate kinase and 10 μg/ml lactate dehydrogenase.
An assay stock buffer solution was prepared containing all of the reagents listed above, with the exception of ATP and the test compound of interest. 60 μl of the stock solution was placed in a 96 well plate followed by addition of […] of DMSO stock containing serial dilutions of the test compound (typically starting from a final concentration of 7.5 μM). The plate was preincubated for 10 minutes at 30° C. and the reaction initiated by addition of 5 μl of ATP. Initial reaction rates were determined with a Molecular Devices SpectraMax Plus plate reader over a 10 minute time course. IC50 and Ki data were calculated from non-linear regression analysis using the Prism software package (GraphPad Prism version 3.0cx for Macintosh, GraphPad Software, San Diego Calif., USA).

Row | Compound | Ki [1] [µM] | Ki [2] [µM] | Ki [3] [µM]
1 | CNc1cc(-c2c[nH]c(=O)c(NC(=O)c3ccc(C(C)(C)C)cc3)c2)nc(SC)n1 [II-41] | 0.1 to 1 | 0.1 to 1 | > 1
2 | CN(C)CCCNc1ccc(C(=O)Nc2cc(-c3ccncc3)c[nH]c2=O)cc1 [Compound I-79] | – | < 0.1 | –
3 | CC(C)(C)c1ccc(C(=O)Nc2cc(-c3ccncc3)c[nH]c2=O)cc1 [Compound I-11, 4-tert-Butyl-N-(6-oxo-1,6-dihydro-[3,4]bipyridinyl-5-yl)-benzamide] | 0.1 to 1 | 0.1 to 1 | > 1
4 | NCCCNc1ccc(C(=O)Nc2cc(-c3ccncc3)c[nH]c2=O)cc1 [Compound I-80] | – | < 0.1 | –
5 | O=C(Nc1cc(-c2ccncc2)c[nH]c1=O)c1ccc(CCl)cc1 [Compound I-5] | 0.1 to 1 | 0.1 to 1 | > 1
6 | CSc1nccc(-c2c[nH]c(=O)c(NC(=O)c3ccc(C(C)(C)C)cc3)c2)n1 [II-4, 4-tert-Butyl-N-[5-(2-methylsulfanyl-pyrimidin-4-yl)-2-oxo-1,2-dihydro-pyridin-3-yl]-benzamide] | 0.1 to 1 | 0.1 to 1 | –
7 | O=C(Nc1cc(-c2ccncc2)c[nH]c1=O)c1ccc(CN2CCOCC2)cc1 [Compound I-82] | 0.1 to 1 | 0.1 to 1 | –
8 | CNc1cncc(-c2c[nH]c(=O)c(NC(=O)c3ccc(N4CCN(CCO)CC4)cc3)c2)n1 [II-148] | < 0.1 | – | > 1
9 | O=C(Nc1cc(-c2ccncc2)c[nH]c1=O)c1ccc(CN2CCNCC2)cc1 [Compound I-83] | 0.1 to 1 | 0.1 to 1 | –
10 | CNc1cncc(-c2c[nH]c(=O)c(NC(=O)c3ccc(NC4CCNCC4)cc3)c2)n1 [II-163] | < 0.1 | – | > 1
11 | CNc1cncc(-c2c[nH]c(=O)c(NC(=O)c3ccc(N(C)CCN(C)C)cc3)c2)n1 [II-164] | < 0.1 | – | > 1
12 | CC(C)c1ccc(NC(=O)c2cc(-c3ccncc3)c[nH]c2=O)cc1 [III-4] | 0.1 to 1 | – | > 1
13 | CNCCN(C)Cc1ccc(C(=O)Nc2cc(-c3ccncc3)c[nH]c2=O)cc1 [Compound I-84] | 0.1 to 1 | 0.1 to 1 | –
14 | CN1CCN(c2ccc(C(=O)Nc3cc(-c4ccncc4)c[nH]c3=O)cc2)CC1 [Compound I-70] | – | < 0.1 | –
15 | CC(C)(C)c1ccc(C(=O)Nc2cc(-c3ccnc(N[C@@H]4CCNC4)n3)c[nH]c2=O)cc1 [II-31] | < 0.1 | – | < 1
16 | O=C(Nc1cc(-c2ccncc2)c[nH]c1=O)c1ccc(N2CCCC2)cc1 [Compound I-69] | 0.1 to 1 | 0.1 to 1 | –
17 | CNc1nccc(-c2c[nH]c(=O)c(NC(=O)c3ccc(C(C)(C)C)cc3)c2)n1 [II-14] | < 0.1 | – | < 1
18 | CNc1cncc(-c2c[nH]c(=O)c(NC(=O)c3ccc(N4CCC[C@H]4CN4CCCC4)cc3)c2)c1 [II-178] | < 0.1 | – | > 1
19 | CNc1cc(C#N)cc(-c2c[nH]c(=O)c(NC(=O)c3ccc(N4CCNCC4)cc3)c2)n1 [II-160] | < 0.1 | – | > 1
20 | CNc1cc(C#N)cc(-c2c[nH]c(=O)c(NC(=O)c3ccc(N4CCC[C@H]4CN4CCCC4)cc3)c2)c1 [II-179] | < 0.1 | – | > 1
21 | CNCCNc1cc(-c2c[nH]c(=O)c(NC(=O)c3ccc(C(C)(C)C)cc3)c2)ncn1 [II-38] | 0.1 to 1 | – | > 1
22 | CC(C)(C)c1ccc(C(=O)Nc2cc(-c3ccnc(NC4CCNCC4)n3)c[nH]c2=O)cc1 [II-28] | < 0.1 | – | < 1
23 | O=C(Nc1cc(-c2ccncc2)c[nH]c1=O)c1ccc(N2CCCNCC2)cc1 [Compound I-78] | – | < 0.1 | –
24 | CC(C)(C)c1ccc(C(=O)Nc2cc(-c3ccnc(NC4CCNC4)n3)c[nH]c2=O)cc1 (stereo not shown) [II-30] | < 0.1 | – | < 1
25 | CC(C)(C)c1ccc(NC(=O)c2cc(-c3ccncc3)c[nH]c2=O)cc1 [III-5] | 0.1 to 1 | – | > 1
26 | O=C(Nc1cc(-c2ccncc2)c[nH]c1=O)c1ccc(N2CCCCCC2)cc1 [Compound I-76] | – | < 0.1 | –
27 | CNCCNc1cccc(-c2c[nH]c(=O)c(NC(=O)c3ccc(N4CCCCC4)cc3)c2)c1 [II-75] | 0.1 to 1 | – | > 1
